In patent US12133922B2, “Abuse resistant capsule” (R.P. Scherer Technologies, LLC, priority 2013, dated 2024):
Counter-ions that a name gives are not always drawn.

Assay: aqueous, methanol and acidic extraction of capsule fill, assay by HPLC
Format: physicochemical
Experimental: In order to ascertain the resistance to aqueous and acidic extraction, the fill mass of 10 capsules was mixed with different amounts of purified water (5 mL/caps. and 10 mL/caps.) and extracted for 1, 3 or 5 days. Further, the fill mass of 10 capsules was mixed with 20 mL of methanol and was extracted for 3 days.
The fill mass of 10 capsules of Formulation A or Formulation B was mixed with 20 mL of 0.1 N hydrochloric acid and extracted for one day. Comparison solutions of Pseudoephedrine HCl (labeled as API in the table below) were prepared. After an extraction of the formulation/solvent mixture, the mixtures were centrifugated and the assay of pseudoephedrine HCl was analyzed by HPLC. Even after centrifugation the solutions were turbid. The results were normalized to a capsule containing 1164.8 mg of pseudoephedrine HCl.

Structure (SMILES): CN[C@@H](C)[C@@H](O)c1ccccc1 [API, Pseudoephedrine HCl]
- Calculated Mass of recoverable Pseudoephedrine HCl (comparison solution, 1 day, 50 mL water): 1026.0 mg
- Calculated Mass of recoverable Pseudoephedrine HCl (comparison solution, 3 days, 50 mL water): 1243.7 mg
- Calculated Mass of recoverable Pseudoephedrine HCl (comparison solution, 5 days, 50 mL water): 1227.7 mg
- Calculated Mass of recoverable Pseudoephedrine HCl (extraction 1 day, 20 mL HCl 0.1 mol/L with neutralisation): 1197.3 mg
- Calculated Mass of recoverable Pseudoephedrine HCl (extraction 1 day, 20 mL HCl 0.1 mol/L without neutralisation): 1054.7 mg
- Calculated Mass of recoverable Pseudoephedrine HCl (extraction 3 days, 20 mL methanol): 1165.6 mg
